Assay results reported in patent US20250129078A1, “ERBB2 INHIBITORS” (Cogent Biosciences, Inc., priority 2023, published 2025).

Assays:
ErbB2 V777L = ErbB2 V777L (Homo sapiens (Human), UniProt P04626, V777L); test: ErbB enzyme assay (CisBio HTRF-KinEASE-TK), ErbB2 V777L; type: biochemical
How it was run: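 HTRF KinEASE-TK tyrosine-kinase read-out of substrate phosphorylation after a final 1 h at ambient temperature, from the 655/620 nm emission ratio.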

EGFR WT = EGFR WT (Homo sapiens (Human), UniProt P00533); test: ErbB enzyme assay (CisBio HTRF-KinEASE-TK), EGFR WT; type: biochemical; settings: ATP at Km (25 μM), 1 h incubation
How it was run: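 Compounds, serially diluted three-fold, were incubated with enzyme for 1 h at ambient temperature. Detection reagents were then added for a further hour, and the 655/620 nm HTRF ratio was normalised to uninhibited and pre-quenched controls. IC50 was fitted with a four-parameter logistic model.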

ErbB2 mutant L755S = ErbB2 mutant L755S (Homo sapiens (Human), UniProt P04626, L755S); test: ErbB cellular phosphorylation assay (phospho-ErbB2 ELISA), HEK-293 cells expressing ErbB2 L755S; type: cell-based; settings: 1 h treatment
Procedure: Cells were seeded in poly-D-lysine coated, 96-well plates at a density of 50,000 cells/well in complete medium (DMEM supplemented with 10% fetal bovine serum and G418) and incubated for 24 h at 37° C., 5% CO2 prior to treatment. Cells were treated with compound using three-fold dilutions at final concentrations ranging from […] for 1 h at 37° C., 5% CO2. EGFR-WT cells were stimulated with 500 ng/mL recombinant human EGF (R&D Systems, 236-EG) for an additional 5 min. After compound incubation, medium was removed from the plate, and cells were lysed in buffer containing protease and phosphatase inhibitors ([…]). Cell lysates were analyzed by enzyme-linked immunosorbent assay (ELISA). The ELISAs were performed to measure phosphorylated ErbB2 or phosphorylated EGFR levels, respectively (R&D Systems, DYC-1768, Human Phospho-ErbB2 DuoSet ELISA; DYC1095, Human Phospho-EGFR DuoSet IC ELISA) according to the manufacturer's instructions. Absorbance was measured at 450 nm using a BioTek Cytation 5 plate reader (Agilent, Santa Clara, CA) and IC50 values were calculated using a 4-parameter fit.

EGFR wild type = EGFR wild type (Homo sapiens (Human), UniProt P00533); test: ErbB cellular phosphorylation assay (phospho-EGFR ELISA), HEK-293 cells expressing EGFR wild type, EGF stimulated; type: cell-based; settings: 1 h treatment
Procedure: HEK-293 cells were engineered to constitutively express ErbB2 mutant L755S or EGFR wild type (constructs obtained from GenScript, Piscataway, NJ). Cells were seeded in poly-D-lysine coated, 96-well plates at a density of 50,000 cells/well in complete medium (DMEM supplemented with 10% fetal bovine serum and G418) and incubated for 24 h at 37° C., 5% CO2 prior to treatment. Cells were treated with compound using three-fold dilutions at final concentrations ranging from […] for 1 h at 37° C., 5% CO2. EGFR-WT cells were stimulated with 500 ng/mL recombinant human EGF (R&D Systems, 236-EG) for an additional 5 min. After compound incubation, medium was removed from the plate, and cells were lysed in buffer containing protease and phosphatase inhibitors ([…]). Cell lysates were analyzed by enzyme-linked immunosorbent assay (ELISA). The ELISAs were performed to measure phosphorylated ErbB2 or phosphorylated EGFR levels, respectively (R&D Systems, DYC-1768, Human Phospho-ErbB2 DuoSet ELISA; DYC1095, Human Phospho-EGFR DuoSet IC ELISA) according to the manufacturer's instructions. Absorbance was measured at 450 nm using a BioTek Cytation 5 plate reader (Agilent, Santa Clara, CA) and IC50 values were calculated using a 4-parameter fit.

Chain of ErbB2 V777L (P04626 23-1255 V777L): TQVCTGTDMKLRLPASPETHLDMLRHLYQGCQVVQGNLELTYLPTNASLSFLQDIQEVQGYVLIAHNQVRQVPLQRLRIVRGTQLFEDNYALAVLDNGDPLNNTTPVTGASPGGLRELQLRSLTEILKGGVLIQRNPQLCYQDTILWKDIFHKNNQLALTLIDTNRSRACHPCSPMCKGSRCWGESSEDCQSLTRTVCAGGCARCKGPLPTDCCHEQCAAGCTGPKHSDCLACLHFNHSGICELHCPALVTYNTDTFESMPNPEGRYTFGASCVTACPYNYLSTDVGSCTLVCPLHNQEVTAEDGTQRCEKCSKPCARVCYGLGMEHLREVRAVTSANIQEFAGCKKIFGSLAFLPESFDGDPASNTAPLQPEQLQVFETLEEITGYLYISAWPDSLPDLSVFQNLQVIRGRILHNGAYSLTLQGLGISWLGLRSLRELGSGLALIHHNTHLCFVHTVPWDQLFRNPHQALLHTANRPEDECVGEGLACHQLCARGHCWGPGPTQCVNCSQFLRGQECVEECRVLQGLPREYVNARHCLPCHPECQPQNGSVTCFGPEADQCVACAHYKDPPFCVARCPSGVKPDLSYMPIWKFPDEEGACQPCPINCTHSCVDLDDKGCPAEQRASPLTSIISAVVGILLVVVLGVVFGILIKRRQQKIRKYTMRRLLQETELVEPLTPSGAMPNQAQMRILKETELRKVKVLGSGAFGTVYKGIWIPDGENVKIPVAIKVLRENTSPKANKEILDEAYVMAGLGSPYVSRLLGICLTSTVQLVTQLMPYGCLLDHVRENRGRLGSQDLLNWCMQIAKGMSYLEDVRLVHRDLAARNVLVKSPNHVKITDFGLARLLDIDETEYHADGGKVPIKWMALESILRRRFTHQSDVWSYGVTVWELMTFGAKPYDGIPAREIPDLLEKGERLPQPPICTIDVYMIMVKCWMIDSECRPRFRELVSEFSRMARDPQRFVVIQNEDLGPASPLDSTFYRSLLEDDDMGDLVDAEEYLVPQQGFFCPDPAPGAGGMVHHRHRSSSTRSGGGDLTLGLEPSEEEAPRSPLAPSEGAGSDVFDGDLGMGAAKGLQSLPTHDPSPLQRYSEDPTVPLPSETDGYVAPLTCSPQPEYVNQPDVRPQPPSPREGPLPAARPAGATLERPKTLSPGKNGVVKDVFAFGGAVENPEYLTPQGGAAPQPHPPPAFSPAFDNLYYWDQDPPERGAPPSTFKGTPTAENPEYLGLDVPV
Chain of EGFR WT (P00533 25-1210): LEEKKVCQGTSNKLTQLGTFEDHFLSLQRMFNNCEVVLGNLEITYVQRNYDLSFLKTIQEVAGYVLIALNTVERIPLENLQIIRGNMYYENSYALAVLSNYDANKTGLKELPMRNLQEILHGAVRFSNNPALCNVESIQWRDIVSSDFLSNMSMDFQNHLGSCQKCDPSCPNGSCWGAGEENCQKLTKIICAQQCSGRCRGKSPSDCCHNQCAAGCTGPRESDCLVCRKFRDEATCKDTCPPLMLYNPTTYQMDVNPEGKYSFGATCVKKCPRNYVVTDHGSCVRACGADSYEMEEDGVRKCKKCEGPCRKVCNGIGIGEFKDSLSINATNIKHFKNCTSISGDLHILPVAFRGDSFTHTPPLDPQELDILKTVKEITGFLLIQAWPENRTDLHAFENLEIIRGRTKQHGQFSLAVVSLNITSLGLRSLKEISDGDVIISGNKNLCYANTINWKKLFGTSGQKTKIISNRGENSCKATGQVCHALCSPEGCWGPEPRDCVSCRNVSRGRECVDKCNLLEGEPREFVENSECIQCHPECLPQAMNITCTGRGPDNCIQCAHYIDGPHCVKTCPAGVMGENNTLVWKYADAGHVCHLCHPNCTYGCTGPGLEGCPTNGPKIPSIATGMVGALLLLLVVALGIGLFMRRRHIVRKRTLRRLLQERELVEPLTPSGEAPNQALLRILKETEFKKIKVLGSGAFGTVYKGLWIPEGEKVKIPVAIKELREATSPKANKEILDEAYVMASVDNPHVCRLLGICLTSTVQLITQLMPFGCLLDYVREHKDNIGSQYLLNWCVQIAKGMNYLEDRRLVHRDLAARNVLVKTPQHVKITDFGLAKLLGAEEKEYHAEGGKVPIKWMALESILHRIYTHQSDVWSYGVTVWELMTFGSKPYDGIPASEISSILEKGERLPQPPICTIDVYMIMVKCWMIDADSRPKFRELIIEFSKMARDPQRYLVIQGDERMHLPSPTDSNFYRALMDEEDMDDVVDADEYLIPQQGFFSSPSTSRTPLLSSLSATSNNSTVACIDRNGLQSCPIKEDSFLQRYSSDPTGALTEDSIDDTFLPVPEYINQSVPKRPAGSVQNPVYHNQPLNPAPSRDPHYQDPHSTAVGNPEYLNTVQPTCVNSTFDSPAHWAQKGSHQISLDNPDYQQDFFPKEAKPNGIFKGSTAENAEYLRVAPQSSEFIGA
Chain of EGFR wild type (P00533 25-1210): as above
Chain of ErbB2 mutant L755S (P04626 23-1255 L755S): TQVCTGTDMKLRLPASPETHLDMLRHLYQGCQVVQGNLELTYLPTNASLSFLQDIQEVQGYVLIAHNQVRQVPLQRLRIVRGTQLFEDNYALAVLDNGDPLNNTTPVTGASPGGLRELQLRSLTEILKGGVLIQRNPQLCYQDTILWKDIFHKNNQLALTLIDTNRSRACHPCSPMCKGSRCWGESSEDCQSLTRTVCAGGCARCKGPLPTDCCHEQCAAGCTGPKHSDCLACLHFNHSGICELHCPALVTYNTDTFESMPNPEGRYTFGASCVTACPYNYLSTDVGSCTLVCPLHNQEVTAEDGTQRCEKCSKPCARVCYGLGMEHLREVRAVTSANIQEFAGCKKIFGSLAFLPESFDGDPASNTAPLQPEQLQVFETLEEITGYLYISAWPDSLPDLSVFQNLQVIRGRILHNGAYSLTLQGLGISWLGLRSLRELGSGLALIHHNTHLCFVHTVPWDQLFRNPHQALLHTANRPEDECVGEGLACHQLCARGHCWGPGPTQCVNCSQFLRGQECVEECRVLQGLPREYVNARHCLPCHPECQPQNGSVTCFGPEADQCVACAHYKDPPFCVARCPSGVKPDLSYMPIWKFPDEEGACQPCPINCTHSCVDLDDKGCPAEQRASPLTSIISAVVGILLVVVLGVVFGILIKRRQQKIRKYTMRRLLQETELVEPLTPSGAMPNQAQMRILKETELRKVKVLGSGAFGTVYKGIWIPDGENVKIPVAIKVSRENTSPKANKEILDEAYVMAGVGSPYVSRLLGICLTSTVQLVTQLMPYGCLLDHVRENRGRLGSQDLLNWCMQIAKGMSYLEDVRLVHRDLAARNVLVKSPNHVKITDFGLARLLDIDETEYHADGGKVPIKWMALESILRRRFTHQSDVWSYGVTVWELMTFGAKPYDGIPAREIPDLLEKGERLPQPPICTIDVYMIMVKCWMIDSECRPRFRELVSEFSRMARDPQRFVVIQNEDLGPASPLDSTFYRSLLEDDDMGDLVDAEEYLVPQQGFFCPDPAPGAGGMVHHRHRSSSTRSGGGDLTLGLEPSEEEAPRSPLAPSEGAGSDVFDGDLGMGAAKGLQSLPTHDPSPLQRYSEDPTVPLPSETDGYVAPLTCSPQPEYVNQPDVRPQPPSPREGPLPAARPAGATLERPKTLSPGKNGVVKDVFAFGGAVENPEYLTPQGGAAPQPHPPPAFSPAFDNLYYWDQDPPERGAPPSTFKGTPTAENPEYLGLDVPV

Structure (SMILES)	IC50 (ErbB2 V777L)	IC50 (EGFR WT)	IC50 (ErbB2 mutant L755S)	IC50 (EGFR wild type)
C=CC(=O)N1CCN(c2ncc3ncnc(Nc4ccc(Oc5ccc6c(c5)nnn6C)c(C)c4)c3n2)CC1(C)C [Compound 3, 1-(2,2-dimethyl-4-(8-((3-methyl-4-((1-methyl-1H-benzo[d][1,2,3]triazol-5-yl)oxy)phenyl)amino)pyrimido[5,4-d]pyrimidin-2-yl)piperazin-1-yl)prop-2-en-1-one]	50 to 100 nM	100 to 500 nM	100 to 500 nM	≥ 5000 nM
C=CC(=O)N1CCN(c2ncc3ncnc(Nc4ccc(Oc5cc(F)c6c(c5)nnn6C)c(C)c4F)c3n2)CC1 [Compound 33, 1-(4-(8-((2-fluoro-4-((7-fluoro-1-methyl-1H-benzo[d][1,2,3]triazol-5-yl)oxy)-3-methylphenyl)amino)pyrimido [5,4-d]pyrimidin-2-yl)piperazin-1-yl)prop-2-en-1-one]	50 to 100 nM	< 50 nM	< 100 nM	≥ 5000 nM
C=CC(=O)N1C2CC1CN(c1ccc3ncnc(Nc4ccc(Oc5ccc6c(c5)nnn6C)c(C)c4)c3n1)C2 [Compound 93, 1-(3-(4-((3-methyl-4-((1-methyl-1H-benzo[d][1,2,3]triazol-5-yl)oxy)phenyl)amino)pyrido[3,2-d]pyrimidin-6-yl)-3,6-diazabicyclo[3.1.1]heptan-6-yl)prop-2-en-1-one]	50 to 100 nM	100 to 500 nM	< 100 nM	≥ 5000 nM
C=CC(=O)N1CCN(c2ccc3ncnc(Nc4ccc(Oc5ccc6c(c5)nnn6C)c(C)c4F)c3n2)CC1 [Compound 95, 1-(4-(4-((2-fluoro-3-methyl-4-((1-methyl-1H-benzo[d][1,2,3]triazol-5-yl)oxy)phenyl)amino)pyrido[3,2-d]pyrimidin-6-yl)piperazin-1-yl)prop-2-en-1-one]	–	< 50 nM	–	≥ 5000 nM
C=CC(=O)N1CCC(Sc2ncc3ncnc(Nc4ccc(Oc5ccc6c(c5)ncn6C)c(C)c4F)c3n2)CC1 [Compound 107, 1-(4-((8-((2-fluoro-3-methyl-4-((1-methyl-1H-benzo[d]imidazol-5-yl)oxy)phenyl)amino)pyrimido[5,4-d]pyrimidin-2-yl)thio)piperidin-1-yl)prop-2-en-1-one]	50 to 100 nM	–	100 to 500 nM	≥ 5000 nM
C=CC(=O)N1CCN(c2ncc3ncnc(Nc4ccc(Oc5ccc6c(c5)ncn6C(F)F)c(C)c4F)c3n2)CC1 [Compound 21, 1-(4-(8-((4-((1-(difluoromethyl)-1H-benzo[d]imidazol-5-y1)oxy)-2-fluoro-3-methylphenyl)amino)pyrimido[5,4-d]pyrimidin-2-yl)piperazin-1-yl)prop-2-en-1-one]	–	< 50 nM	–	1000 to 5000 nM
C=CC(=O)N1CC=C(c2ccc3ncnc(Nc4ccc(Oc5ccc6c(c5)nnn6C)c(C)c4)c3n2)C1 [Compound 110, 1-(3-(4-((3-methyl-4-((1-methyl-1H-benzo[d][1,2,3]triazol-5-yl)oxy)phenyl)amino)pyrido[3,2-d]pyrimidin-6-yl)-2,5-dihydro-1H-pyrrol-1-yl)prop-2-en-1-one]	–	50 to 100 nM	–	≥ 5000 nM
C=CC(=O)N1CCN(c2ncc3ncnc(Nc4ccc(Oc5cc(F)c6c(c5)nnn6C)c(C)c4)c3n2)CC1 [Compound 4, 1-(4-(8-((4-((7-fluoro-1-methyl-1H-benzo[d][1,2,3]triazol-5-yl)oxy)-3-methylphenyl)amino)pyrimido[5,4-d]pyrimidin-2-yl)piperazin-1-yl)prop-2-en-1-one]	–	< 50 nM	–	1000 to 5000 nM
C=CC(=O)N1C2CCC1CN(c1ncc3ncnc(Nc4cc(C)c(Oc5cc(F)c6c(c5)ncn6C)cc4OC)c3n1)C2 [Compound 42, 1-(3-(8-((4-((7-fluoro-1-methyl-1H-benzo[d]imidazol-5-yl)oxy)-2-methoxy-5-methylphenyl)amino)pyrimido[5,4-d]pyrimidin-2-y1)-3,8-diazabicyclo[3.2.1]octan-8-yl)prop-2-en-1-one]	–	100 to 500 nM	–	≥ 5000 nM
